The assay relates to BDF1 mice, P388 leukemia ip, median survival T/C. The assay is described as follows: NCI In Vivo Anticancer Drug Screen. Data for tumor model P388 Leukemia (intraperitoneal) in B6D2F1 (BDF1) mice. The note with it: endpoint: median survival time, higher = longer survival. The procedure, abridged:
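Mice carrying the transplantable tumour receive compound or vehicle. Survival is followed in each arm, and the treated measure is divided by the vehicle measure.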

[1] abbreviates: dose: 25.0 mg/kg/injection, schedule: Q01DX009 (ip), vehicle: saline with Tween-80.
[2] abbreviates: dose: 50.0 mg/kg/injection, schedule: Q04DX003 (ip), vehicle: saline.
The mark [3] stands for this setting: dose: 100.0 mg/kg/injection, schedule: Q04DX003 (ip), vehicle: saline.
Setting [4] is: dose: 50.0 mg/kg/injection, schedule: Q01DX009 (ip), vehicle: saline with Tween-80.
[5] abbreviates: dose: 100.0 mg/kg/injection, schedule: Q01DX009 (ip), vehicle: saline with Tween-80.
The mark [6] stands for this setting: dose: 100.0 mg/kg/injection, schedule: Q04DX003 (ip), vehicle: saline with Tween-80.
The mark [7] stands for this setting: dose: 200.0 mg/kg/injection, schedule: Q04DX003 (ip), vehicle: saline with Tween-80.
Setting [8] is: dose: 400.0 mg/kg/injection, schedule: Q04DX003 (ip), vehicle: saline with Tween-80.

Molecules are shown by their SMILES. Toxic doses and inconclusive results are not listed.

As to `O=C(O)CCC(=O)Nc1cccc(Oc2ccc([N+](=O)[O-])cc2[N+](=O)[O-])c1`, the T/C by setting is: (dose: 100.0 mg/kg/injection, schedule: Q04DX003 (ip), vehicle: other) 95 % of control; (dose: 200.0 mg/kg/injection, schedule: Q01DX009 (ip), vehicle: Klucel (hydroxypropylcellulose) (HPC)) 113 % of control; (dose: 200.0 mg/kg/injection, schedule: Q04DX003 (ip), vehicle: other) 100 % of control; (dose: 400.0 mg/kg/injection, schedule: Q01DX009 (ip), vehicle: Klucel (hydroxypropylcellulose) (HPC)) 109 % of control; (dose: 400.0 mg/kg/injection, schedule: Q04DX003 (ip), vehicle: other) 100 % of control.

Regarding `COc1cccc(S(=O)(=O)c2ccc([N+](=O)[O-])c3nonc23)c1`, the T/C reads like this: (dose: 12.5 mg/kg/injection, schedule: Q01DX009 (ip), vehicle: saline with Tween-80) 111 % of control; under setting [1], 111 % of control.

Take `Nc1ncns1`: the T/C is, setting by setting: under setting [2], 101 % of control; under setting [3], 120 % of control.

Turning to `OC1CCCC2CCCNC12` (stereo not drawn) (tested in a mixture with another compound), the T/C runs as follows: under setting [1], 88 % of control; under setting [4], 103 % of control; under setting [5], 100 % of control.

Take `O=[N+]([O-])c1ccc(C[Se]c2ncnc3c2ncn3C2OC(CO)C(O)C2O)cc1` (stereo not drawn): the T/C (dose: 12.5 mg/kg/injection, schedule: Q04DX003 (ip), vehicle: saline) is 109 % of control; the T/C (dose: 25.0 mg/kg/injection, schedule: Q04DX003 (ip), vehicle: saline) was 103 % of control; the T/C under setting [2] was 96 % of control; the T/C under setting [3] is 105 % of control.

For `CC1(CCNC2CCCCC2)Oc2ccccc2O1`, the T/C is 99 % of control (dose: 50.0 mg/kg/injection, schedule: Q04DX002 (ip), vehicle: Klucel (hydroxypropylcellulose) (HPC)) and 101 % of control (dose: 100.0 mg/kg/injection, schedule: Q04DX002 (ip), vehicle: Klucel (hydroxypropylcellulose) (HPC)).

Regarding `O=C1N=C2C=CC=CN2C(=O)C1Cc1ccccc1` (stereo not drawn), the T/C by setting is: under setting [6], 96 % of control; under setting [7], 100 % of control; under setting [8], 104 % of control.

As for `O=C(N/N=C\c1c(Cl)cccc1Cl)c1ccccc1`, the T/C runs as follows: (dose: 50.0 mg/kg/injection, schedule: Q04DX003 (ip), vehicle: acetone) 113 % of control; (dose: 100.0 mg/kg/injection, schedule: Q04DX003 (ip), vehicle: acetone) 95 % of control; (dose: 200.0 mg/kg/injection, schedule: Q04DX003 (ip), vehicle: acetone) 90 % of control.

As for `O=C(Nc1nncs1)c1cnccn1`, the T/C (dose: 50.0 mg/kg/injection, schedule: Q04DX002 (ip), vehicle: saline with Tween-80) is 98 % of control; the T/C (dose: 100.0 mg/kg/injection, schedule: Q04DX002 (ip), vehicle: saline with Tween-80) was 97 % of control; the T/C (dose: 200.0 mg/kg/injection, schedule: Q04DX002 (ip), vehicle: saline with Tween-80) was 104 % of control; the T/C (dose: 400.0 mg/kg/injection, schedule: Q04DX002 (ip), vehicle: saline with Tween-80) was 168 % of control.

On to `COc1ccccc1NC(=O)Nc1ccc(N(C)C)cc1`, for which the T/C was 90 % of control under setting [6], 118 % of control under setting [7] and 90 % of control under setting [8].

`CC(O)C(=O)Oc1ccccc1` (stereo not drawn): the T/C (dose: 100.0 mg/kg/injection, schedule: Q01DX009 (ip), vehicle: saline) was 90 % of control and the T/C (dose: 200.0 mg/kg/injection, schedule: Q01DX009 (ip), vehicle: saline) is 109 % of control.

For `C[C@]12CC[C@H](O)C=C1CC[C@@H]1[C@@H]2CC[C@]2(C)C(c3ccc(=O)oc3)CC[C@]12O` (stereo partly drawn), the T/C by setting is: (dose: 6.25 mg/kg/injection, schedule: Q01DX009 (ip), vehicle: Klucel (hydroxypropylcellulose) (HPC)) 96 % of control; (dose: 12.5 mg/kg/injection, schedule: Q01DX009 (ip), vehicle: Klucel (hydroxypropylcellulose) (HPC)) 86 % of control.

Take `O=C1NC(=O)C(c2cccs2)(c2cccs2)N1`: the T/C (dose: 25.0 mg/kg/injection, schedule: Q01DX009 (ip), vehicle: water) is 115 % of control; the T/C (dose: 100.0 mg/kg/injection, schedule: Q01DX009 (ip), vehicle: water) was 111 % of control; the T/C (dose: 100.0 mg/kg/injection, schedule: Q04DX003 (ip), vehicle: water) was 99 % of control; the T/C (dose: 200.0 mg/kg/injection, schedule: Q04DX003 (ip), vehicle: water) is 98 % of control.

For `O=C(O)c1c[nH]n2c(=S)ncnc12`, the T/C by setting is: under setting [4], 93 % of control; (dose: 50.0 mg/kg/injection, schedule: Q04DX003 (ip), vehicle: saline with Tween-80) 104 % of control; under setting [5], 104 % of control; under setting [6], 91 % of control; (dose: 200.0 mg/kg/injection, schedule: Q01DX009 (ip), vehicle: saline with Tween-80) 100 % of control; under setting [7], 87 % of control. The T/C was 93 % of control (dose: 400.0 mg/kg/injection, schedule: Q01DX009 (ip), vehicle: saline with Tween-80) and 95 % of control under setting [8].

`CCOc1ccc(S(=O)(=O)c2ccc(C)cc2)c2c1no[n+]2[O-]`: for the setting “dose: 15.0 mg/kg/injection, schedule: Q01DX009 (ip), vehicle: saline with Tween-80”, the T/C was 102 % of control.

These data come from PubChem BioAssay AID328 (DTP/NCI, 2004).
